In patent US10451637B2, “Synthetic blood vessels and uses thereof” (THE UNIVERSITY OF BRITISH COLUMBIA, priority 2017, dated 2019):
“Also recorded” adds a separate entry of the source.

How the values were obtained:
endothelial barrier = assay: Endothelial barrier integrity, Evans blue injected into circulation loop; type: in vitro ADME, human; settings: tripartite and bipartite vessels
Excerpt: The integrity of the endothelial barrier in tripartite vessels was functionally assessed by injecting Evans blue into the circulation loop and compared to bipartite vessels. As expected, Evans blue was excluded in both tripartite and bipartite vessels (FIG. 1A).

[1] = system: native apoE secreted by astrocytes; assay: Astrocyte apoE secretion in tripartite vessels (ELISA); type: cell-based, human; settings: GW3965 circulated through lumen 72 h
Experimental: All experiments were conducted under an approved clinical protocol (UBC Clinical Ethics Research Board H14-03357). Upon receipt of written informed consent, 100 ml of fasted blood was collected from normolipidemic healthy donors into vacutainer tubes containing EDTA. Plasma HDL (1.063-1.21 g/ml) was isolated by sequential potassium bromide gradient ultracentrifugation. The purity of the HDL preparations were verified by sodium dodecyl sulfate polyacrylamide gel electrophoresis (SDS-PAGE) followed by Coomassie blue staining to ensure no low-density lipoprotein (LDL) or albumin contamination. Total protein concentration was assessed using the bicinchoninic acid (BCA) assay (Thermofisher Scientific). Recombinant ApoE2 and ApoE4 were commercially purchased and solubilized following the manufacturer's instructions (ABCAM, apoE2 ab55210 and apoE4 ab50243). Secretion of endogenous ApoE from human astrocytes in tripartite vessels was induced by injecting 0.8 μM GW3965 in the circulation medium 72 h prior to addition of Aβ. ApoE concentrations were measured using enzyme linked immunosorbent assay (ELISA) as previously described (Fan et al. 2016 PLoS One. September 6; 11(9):e0162384). […] Fluorescence was read after 15 min at RT on an EnSpire 2300 Multilabel Plate Reader (325Ex/420Em). […]

glutamate release = assay: Neuronal functionality: glutamate release from quadripartite tissue (HPLC); type: cell-based, human; settings: 50 nM KCl for 30 min
Experimental: After 21 days in culture, quadripartite tissue were harvested in Hanks buffered salt solution (HBSS) and cut in half. One half is incubated in HBSS without potassium chloride (KCl) and one half in HBSS with […] KCl. After 30 minutes buffer was collected and run through a GABA/glutamate affinity column on a high pressure liquid chromatography (HPLC) previously calibrated with glutamate standard (0 to 2.5 uM).
The functionality of the neurons was further evaluated by measuring glutamate release in the absence and presence of […] of KCL for 30 min. Glutamate release was then measured by HPLC (FIG. 9A). […] Finally, the secretion of endogenous neuronally-produced Aβ40 and Aβ42 in quadripartite tissue (FIG. 9B) and in circulatory medium (FIG. 9C) as measured by commercial ELISA as above.

NO synthase = assay: NO production by EC in tripartite vessels (conversion of L-3H-arginine to L-3H-citruline); type: cell-based, human; settings: 1 mM L-NAME with Ach or HDL stimulation
Experimental: Nitric oxide (NO) synthesis was measured using a commercial nitric oxide synthesis (NOS) activity assay kit (Caymenchemical). Briefly, a 2-3 mm ring of vascular tissue was mechanically ground in 150 μl of ice-cold homogenized buffer (25 mM Tris-Cl, pH7.4, 1 mM EDTA and 1 mM EGTA) and centrifuged 15 min at 4° C. at 10,000 g. The supernatant was aliquoted and incubated in reaction buffer containing 25 mM Tris-Cl, pH7.4, 0.25 mM EDTA, 0.6 mM CaCl2, 1 mM NADP, 200 nM calmodulin, 3 μM tetrahydrobiopterin, 1 μM flavin adenine dinucleotide, 1 μM flavin adenine monoucleotide and 0.2 μCi L-^3H-arginine; PerkinElmer) in the presence of 10 nM acetylcholine (Ach), 0.2 mg/ml HDL or 1 mM L-NG-nitroarginine methyl ester (L-NAME). After 60 min at 37° C., the reaction was stopped by adding 400 μl of stop buffer ([…] HEPES, 5 mM EDTA, pH 5.5). […] Scintillation mix (Ultimate Gold, PerkinElmer) was added to the supernatant and counted using LS6500 β-counter (Beckman Coulter). The percent citrulline formed was calculated as follows: % conversion=(cpm reaction-cpm background)/cpm total*100.
The functionality of EC and astrocytes within tripartite bioengineered vessels was evaluated by measuring nitric oxide (NO) produced by EC and native apoE secreted by astrocytes, which were genotyped as apoE3/apoE3. […]

Aβ40 [2] = assay: Aβ40 transport into luminal circulating medium, bipartite vessels (ELISA); type: cell-based, human; settings: 1 μM Aβ40, over 4 h, apoE ratio 25:1 antelumen, HDL 200 μg/ml circulating
Experimental: (§1) Recombinant Aβ40 and Aβ42 peptides (California Peptide) were dissolved in hexafluoroisopropanol (HFIP). The HFIP was removed by evaporation overnight and stocks were stored at −20° C. On the day of the assay, soluble monomers were prepared by reconstituting the peptide film in dimethylsulfoxide (DMSO) to 5 mM, diluted further to […] in Roswell Park Memorial Institute (RPMI) medium without FBS. 100 μl of Aβ solution was injected in the tissue chamber containing 900 μl of DMEM (Gibco) without FBS to the desired concentration using a syringe under flow conditions. For luminal recovery, 100 μl circulating medium was collected at the indicated time.
(§2) Luminal medium was collected from the circulation chamber and 5 mm tissue rings were crushed and lysed in radioimmunoprecipitation assay (RIPA) buffer (10 mM Tris pH 7.4, 150 mM NaCl, 1.0% NP-40, 1.0% sodium deoxycholate, 0.1% SDS and cOmplete protease inhibitor with EDTA (Roche)). Aβ40 (KHB3442, Life Tech) and Aβ42 (KHB3482, Life Tech) were quantified using commercial ELISAs and normalized to total protein concentration, measured by BCA.
(§3) Genetic variation in APOE represents a common genetic risk for AD, with apoE4 considered detrimental and apoE2 protective (Zlokovic, 2013 JAMA Neurol 70(4):440-444). […]

Aβ42 [3] = assay: Aβ42 transport into luminal circulating medium, bipartite vessels (ELISA); type: cell-based, human; settings: 1 μM Aβ42, over 4 h, apoE ratio 25:1 antelumen, HDL 200 μg/ml circulating
Experimental: as §1, §2
(§4) Bipartite vessels were prepared as described above. […]

Aβ40 [4] = assay: Aβ40 accumulation in vascular tissue, bipartite vessels (ELISA); type: cell-based, human; settings: 1 μM Aβ40, 24 h, apoE ratio 25:1, HDL 200 μg/ml
Experimental: as §1, §2, §3

Aβ42 [5] = assay: Aβ42 accumulation in vascular tissue, bipartite vessels (ELISA); type: cell-based, human; settings: 1 μM Aβ42, 24 h, apoE ratio 25:1, HDL 200 μg/ml
Experimental: as §1, §2, §4

Aβ40 [6] = assay: Aβ40 transport into luminal circulating medium, tripartite vessels (ELISA); type: cell-based, human; settings: 1 μM Aβ40, over 4 h, GW3965 0.8 μM 72 h (astrocyte apoE), HDL 200 μg/ml
Experimental: as §1
(§5) All experiments were conducted under an approved clinical protocol (UBC Clinical Ethics Research Board H14-03357). Upon receipt of written informed consent, 100 ml of fasted blood was collected from normolipidemic healthy donors into vacutainer tubes containing EDTA. Plasma HDL (1.063-1.21 g/ml) was isolated by sequential potassium bromide gradient ultracentrifugation. […] Total protein concentration was assessed using the bicinchoninic acid (BCA) assay (Thermofisher Scientific). […] ApoE concentrations were measured using enzyme linked immunosorbent assay (ELISA) as previously described (Fan et al. 2016 PLoS One. September 6; 11(9):e0162384). […] Fluorescence was read after 15 min at RT on an EnSpire 2300 Multilabel Plate Reader (325Ex/420Em). […]

Aβ42 [7] = assay: Aβ42 transport into luminal circulating medium, tripartite vessels (ELISA); type: cell-based, human; settings: 1 μM Aβ42, over 4 h, GW3965 0.8 μM 72 h (astrocyte apoE), HDL 200 μg/ml
Experimental: as §1, §5

Aβ40 [8] = assay: Aβ40 accumulation in vascular tissue, tripartite vessels (ELISA); type: cell-based, human; settings: after 24 h, relative to baseline tripartite conditions
Experimental: as §1, §5

Aβ42 [9] = assay: Aβ42 accumulation in vascular tissue, tripartite vessels (ELISA); type: cell-based, human; settings: after 24 h, relative to baseline tripartite conditions
Experimental: as §1, §5

## Cc1cc(-c2ccc(/N=N/c3ccc4c(S(=O)(=O)O)cc(S(=O)(=O)O)c(N)c4c3O)c(C)c2)ccc1/N=N/c1ccc2c(S(=O)(=O)O)cc(S(=O)(=O)O)c(N)c2c1O [Evans blue]
Endothelial barrier
  Evans blue exclusion (integrity of the endothelial barrier): excluded

## O=C(O)Cc1cccc(OCCCN(Cc2cccc(C(F)(F)F)c2Cl)CC(c2ccccc2)c2ccccc2)c1 [GW3965]
[1]
  secretion of native apoE: significantly stimulated

## [Cl-].[K+] [KCl, potassium chloride]
Glutamate release
  glutamate release: increased glutamate release

## COC(=O)[C@@H](N)CCCNC(=N)N[N+](=O)[O-] [L-NAME, L-NG-nitroarginine methyl ester]
NO synthase
  conversion of L-3H-arginine to L-3H-citruline in the presence of L-NAME: the conversion was blocked

## apoE2: Recombinant ApoE2, commercially purchased (ABCAM ab55210)
Aβ40 [2]
  Aβ40 transport (recovery into circulation medium): did not alter
Aβ42 [3]
  Aβ42 transport (recovery into circulation medium): did not alter
Aβ40 [4]
  Aβ40 accumulated in tissue: not significantly affected
Aβ42 [5]
  Aβ42 accumulated in tissue: selectively decreased; also recorded: significantly reduced

## apoE4: Recombinant ApoE4, commercially purchased (ABCAM ab50243)
Aβ42 [5]
  Aβ42 accumulated in tissue: selectively elevated

## apoE: Native apoE3 secreted from astrocytes in tripartite vessels, stimulated with GW3965 (0.8 μM) for 72 h
Aβ40 [6]
  rate of Aβ40 transport: neither apoE alone nor HDL alone modified the rate
Aβ42 [7]
  rate of Aβ42 transport: neither apoE alone nor HDL alone modified the rate
Aβ40 [8]
  accumulation of Aβ40 within tissue: neither apoE, HDL, nor both apoE and HDL affected accumulation
Aβ42 [9]
  accumulation of Aβ42 within tissue: neither apoE, HDL, nor both apoE and HDL affected accumulation
